Results taken from patent US20240398783A1, “Compounds and Pharmaceutical Compositions Comprising Inhibitors of Amyloid Peptide Interactions with Glycosaminoglycans, Methods of Treatment and Use Thereof” (Gismo Therapeutics, Inc., priority 2021, published 2024).
Where a name gives a salt, the structure may show the parent alone.

Target: T1, Amyloid-beta(1-42) oligomer binding to heparin (HS-GAG) (Homo sapiens, UniProt P05067)
T1 construct: Beta-amyloid (1-42) was purchased from rPeptide (Cat. No. A1163); purchased rPeptide A1163
Test: Inhibition of Amyloid-beta(1-42) oligomer binding to immobilized heparin-BSA (ELISA)
Design: species or system porcine
Settings: 30 μM compound; Abeta(1-42) oligomers, heparin-BSA; read-out: Abeta42/Heparin Activity (% inhibition class)
Description: Porcine intestinal mucosa heparin conjugated to Bovine Serum Albumin (Heparin-BSA) was prepared as described (Najjam, S. et al. 1997, Cytokine 12, 1013-1022). Heparin is a sulfated HS-GAG and is commonly used as a HS-GAG in biochemical and binding assays (Lindahl, U. and Kjellen, L. (2013) ibid). Heparin-BSA at 0.01 mg/ml in Phosphate Buffered Saline (PBS; pH 7.4) was added to a 96 well polystyrene ELISA plate (NUNC Cat. No. 449824; 100 μl per well) and incubated Over Night (ON) at 4 degrees Celsius. For negative controls, ELISA plates were coated with BSA instead of Heparin-BSA, using the same procedure. Following the incubation, the plate was washed consecutively, by immersion, with de-ionized water and PBS (pH 7.4). The ELISA plate was then blocked with nonfat milk (2%, 200 μl per well) for 2 hours at Room Temperature (RT) with gentle shaking. Following blocking, the plate was washed with de-ionized water then PBS (pH 7.4). GBAPs were dissolved and diluted in PBS (pH 6.5, supplemented with 0.1% BSA) at desired concentrations, added to the ELISA plates containing immobilized Heparin-BSA (100 μl per well) and incubated for 2 hours at RT with gentle shaking. Following incubation, the plate was washed with de-ionized water and three times with PBS (pH 6.5) plus Tween. Bound GBAP was detected by a monoclonal antibody specific for that GBAP, followed by incubation with secondary antibody conjugated to horseradish peroxidase (HRP). Antibody was diluted in PBS (pH 6.5 supplemented with 1% BSA). Following each incubation with antibody, the plate was washed with de-ionized water and three times with PBS (pH 6.5) wash buffer containing 0.1% Tween. The peroxidase substrate chromogen, TMB (Dako Cat. No. S1599) was added (100 μl per well) to the ELISA plate and incubated at room temperature. After 5 minutes ELISA Stop Solution (hydrochloric acid 1N, sulfuric acid 3N) was added (100 μl per well) to stop the peroxidase catalyzed colorimetric reaction. The Optical Density of the samples was measured at 450 nm using an ELISA plate reader (BioTek Synergy H1). Following color development, the % inhibition compared to control (BSA-coated plates) was determined. IC-50s were calculated using GraphPad Prism software.
The assay was performed as described in Example 43, with the following modifications. Following to coating the plates with Heparin-BSA, plates were washed as described. The compounds were dissolved in DMSO at 10 mM final concentration and further diluted prior to assay. DMSO concentration in the screening well was up to 2%. Individual compounds were co-incubated with Beta-amyloid peptides on plates containing immobilized heparin. Beta-amyloid (1-42) was purchased from rPeptide (Cat. No. A1163) and used to prepare oligomers according to Stine et al., 2003 (J Biol Chem. 278(13):11612-22) as follows. 1,1,1,3,3,3-Hexafluoro-2-propanol- (HFIP; Sigma Cat. No. 105228)-treated Beta amyloid (1-42) was dissolved in dry DMSO (Sigma Cat. No. D2650) to 5 mM concentration. Dissolved Beta amyloid (1-42) was then diluted to 100 μM in ice-cold cell culture medium (phenol red-free Ham's F-12; Caisson Labs, Cat. No. HFL05), followed immediately by vortexing for 30 seconds, and incubating at 4 degrees Celsius for 24 h. Resulting Beta amyloid (1-42) oligomers were centrifuged at 12,000 rpm for 10 min at 4 degree Celsius to remove aggregates. Oligomers were then quickly frozen and kept in aliquots at −80 degrees Celsius. Beta-amyloid (1-40) from rPeptide (Cat No. A1153) was dissolved in DMSO, quickly frozen and kept in aliquots at −80 degrees Celsius. Beta-amyloid (1-42) oligomers or Beta-amyloid (1-40) diluted in PBS (pH 6.5, supplemented with BSA, 0.1%) were added to the ELISA plate (100 μl per well) and incubated for 2 hours at RT with gentle shaking. Following the incubation, the plate was washed with de-ionized water and three times with PBS (pH 6.5) plus Tween. […]

T1 sequence (P05067 672-713): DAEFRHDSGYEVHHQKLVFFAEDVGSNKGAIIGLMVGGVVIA

Row | SMILES | inhibition at 30 µM [%]
1 | C/C(=N\Nc1ncnc2cc(Cl)ccc12)c1ccc(-n2cncn2)nc1 [Compound 32, (E)-4-(2-(1-(6-(1H-1,2,4-triazol-1-yl)pyridin-3-yl)ethylidene)hydrazineyl)-7-chloroquinazoline] | < 30
2 | C[n+]1ccn(-c2ccc(Nc3ncnc4cc(Cl)ccc34)cn2)c1 [Compound 43, 1-(5-((7-chloroquinazolin-4-yl)amino)pyridin-2-yl)-3-methyl-1H-imidazol-3-ium iodide phosphoric acid salt] | < 30
3 | Fc1ccc2c(N/N=C/c3ccc(CN4CCOCC4)cc3)ccnc2c1 [Compound 6, (E)-4-(4-((2-(7-fluoroquinolin-4-yl)hydrazono)methyl)benzyl)morpholine] | > 30
4 | COc1cc(Nc2cncc3cc(Cl)ccc23)cnc1-n1cnc(C)c1C [Compound 33, 7-chloro-N-(6-(4,5-dimethyl-1H-imidazol-1-yl)-5-methoxypyridin-3-yl)isoquinolin-4-amine phosphoric acid salt] | < 30
5 | CN(C)Cc1cc(Nc2ccnc3cc(Cl)ccc23)ccn1 [Compound 45, 7-chloro-N-(2-((dimethylamino)methyl)pyridin-4-yl)quinolin-4-amine] | < 30
6 | Cc1cn(-c2ccc(Nc3cncc4cc(Cl)ccc34)cn2)c(C)n1 [Compound 37, 7-chloro-N-(6-(2,4-dimethyl-1H-imidazol-1-yl)pyridin-3-yl)isoquinolin-4-amine phosphoric acid salt] | < 30
7 | CCN(CC)Cc1cccc(Nc2ccnc3cc(Cl)ccc23)c1 [Compound 42, 7-chloro-N-(3-((diethylamino)methyl)phenyl)quinolin-4-amine] | < 30
8 | CC(=NNc1ccnc2cc(Cl)ccc12)c1ccc(-n2cc[n+](C)c2)nc1 [Compound 23, 1-(5-(1-(2-(7-chloroquinolin-4-yl)hydrazineylidene)ethyl)pyridin-2-yl)-3-methyl-1H-imidazol-3-ium iodide] | < 30
9 | CCN1CCN(c2ccc(Nc3ccnc4cc5ccccc5cc34)cc2)CC1 [Compound 39, N-(4-(4-ethylpiperazin-1-yl)phenyl)benzo[g]quinolin-4-amine] | < 30
10 | O=S1(=O)CCN(Cc2ccc(/C=N/Nc3ccnc4cc(F)ccc34)cc2)CC1 [Compound 10, (E)-4-(4-((2-(7-fluoroquinolin-4-yl)hydrazono)methyl)benzyl)thiomorpholine 1,1-dioxide] | < 30

Same assay, conditions: Abeta(1-42) oligomers, co-incubation on heparin-BSA plates; read-out: Abeta42/Heparin Activity (IC-50)

Row | SMILES | IC50 [µM]
11 | CC(=NNc1ncnc2cc(Cl)ccc12)c1ccnc(-n2cnc(C)c2C)c1 [Compound 28, 7-chloro-4-(2-(1-(2-(4,5-dimethyl-1H-imidazol-1-yl)pyridin-4-yl)ethylidene)hydrazineyl)quinazoline] | 12.9
12 | Cc1cc(-n2ccnc2)ccc1/C=N/Nc1ccnc2cc(Cl)ccc12 [Compound 1, (E)-4-((E)-(4-(1H-imidazol-1-yl)-2-methylbenzylidene)hydrazono)-7-chloro-1,4-dihydroquinoline] | 2.3
13 | C[N+](C)(C)Cc1ccc(/C=N\Nc2ccnc3ccc(Cl)cc23)cc1 [Compound 4, (Z)-1-(4-((2-(6-chloroquinolin-4-yl)hydrazineylidene)methyl)phenyl)—N,N,N-trimethylmethanaminium iodide] | 42.7
14 | C/C(=N\Nc1nncc2cc(Cl)ccc12)c1ccc(-n2cc(C)nc2C)nc1 [Compound 24, (E)-6-chloro-1-(2-(1-(6-(2,4-dimethyl-1H-imidazol-1-yl)pyridin-3-yl)ethylidene)hydrazineyl)phthalazine] | 16.9
15 | C/C(=N\Nc1ncnc2cc(Cl)ccc12)c1ccc(-n2cc[n+](C)c2)nc1 [Compound 17, (E)-1-(5-(1-(2-(7-chloroquinazolin-4-yl)hydrazineylidene)ethyl)pyridin-2-yl)-3-methyl-1H-imidazol-3-ium iodide phosphoric acid salt] | 11.7
16 | Clc1ccc2c(N/N=C/c3ccc(-n4ccnc4)nc3)ccnc2c1 [Compound 14, (E)-4-(2-((6-(1H-imidazol-1-yl)pyridin-3-yl)methylene)hydrazineyl)-7-chloroquinoline hydrochloride] | 8.14
17 | C/C(=N\Nc1ncnc2cc(F)ccc12)c1ccc(-n2cnc(C)c2C)nc1 [Compound 21, (E)-4-(2-(1-(6-(4,5-dimethyl-1H-imidazol-1-yl)pyridin-3-yl)ethylidene)hydrazineyl)-7-fluoroquinazoline] | 9.5
18 | CC(=NNc1ccnc2cc(Cl)ccc12)c1ccc(-n2ccnc2)cc1 [Compound 36, 4-(2-(1-(4-(1H-imidazol-1-yl)phenyl)ethylidene)hydrazineyl)-7-chloroquinoline phosphate] | 14.2
19 | C/C(=N\Nc1ncnc2cc(Cl)ccc12)c1ccc(-n2cc(C)nc2C)nc1 [Compound 18, (E)-7-chloro-4-(2-(1-(6-(2,4-dimethyl-1H-imidazol-1-yl)pyridin-3-yl)ethylidene)hydrazineyl)quinazoline phosphoric acid salt] | 13.6
20 | Clc1ccc2c(N/N=C/c3ccc(-n4cccn4)cc3)ccnc2c1 [Compound 3, (E)-4-((E)-(4-(1H-pyrazol-1-yl)benzylidene)hydrazono)-7-chloro-1,4-dihydroquinoline] | 2.36

Same assay, conditions: read-out: Abeta42/Heparin Activity (% inhibition class)

Row | SMILES | inhibition at 30 µM [%]
21 | COc1cc2nccc(NN=Cc3ccc(-n4ccnc4)c(C)c3)c2cc1OC [Compound 11, 4-(2-(4-(1H-imidazol-1-yl)-3-methylbenzylidene)hydrazineyl)-6,7-dimethoxyquinoline hydrochloride] | < 30
22 | COc1ccc2c(NN=Cc3ccc(-n4ccnc4)c(C)c3)ccnc2c1 [Compound 12, 4-(2-(4-(1H-imidazol-1-yl)-3-methylbenzylidene)hydrazineyl)-7-methoxyquinoline] | < 30
23 | CC(=NNc1ccnc2cc(Cl)ccc12)c1ccc(-n2cnc(C)c2C)nc1 [Compound 22, 7-chloro-4-(2-(1-(6-(4,5-dimethyl-1H-imidazol-1-yl)pyridin-3-yl)ethylidene)hydrazineyl)quinoline] | > 30
24 | C/C(=N\Nc1ncnc2ccccc12)c1ccc(-n2cc(C)nc2C)nc1 [Compound 19, (E)-4-(2-(1-(6-(2,4-dimethyl-1H-imidazol-1-yl)pyridin-3-yl)ethylidene)hydrazineyl)quinazoline] | < 30
25 | C/C(=N\Nc1ncnc2cc(Cl)ccc12)c1ccc(-n2cc(C)nc2C)nc1 [Compound 27, (E)-7-chloro-4-(2-(1-(6-(2,4-dimethyl-1H-imidazol-1-yl)pyridin-3-yl)ethylidene)hydrazineyl)quinazoline hydrochloride] | > 30
26 | C/C(=N\Nc1ncnc2cc(F)ccc12)c1ccc(-n2cc[n+](C)c2)nc1 [Compound 26, (E)-1-(5-(1-(2-(7-fluoroquinazolin-4-yl)hydrazineylidene)ethyl)pyridin-2-yl)-3-methyl-1H-imidazol-3-ium phosphoric acid salt] | > 30
27 | CN1CCN(c2cc(Nc3ccnc4cc(Cl)ccc34)ccn2)CC1 [Compound 20, 7-chloro-N-(2-(4-methylpiperazin-1-yl)pyridin-4-yl)quinolin-4-amine] | < 30
